{
  "source": "patent US12065654B2",
  "about": "“Plants having increased tolerance to herbicides” (BASF SE, priority 2014, dated 2024)",
  "assay_type_in_all_cases": "in vivo, Glycine max",
  "key": {"[1]": {"test_system": "untransformed control soybean plants (Jake)", "assay": "Herbicide field trial", "settings": "7 DAT with 50 g/ha, post-emergence V2-V3, 1% v/v MSO; preliminary assessment, FIG. 7", "procedure": "(§1) Transgenic plants expressing heterologous HPPD or HST enzymes are tested for tolerance against HPPD-inhibiting herbicides in field experiments.\n(§2) A study can be conducted at a field trial location to evaluate the effect of HPPD herbicides on the phenotypic and phenologic characteristics of a soybean variety containing different transgenes.\n(§3) The trial is designed as a randomized complete block with a split-plot treatment design. The trial contains mainplots defined by ‘herbicide treatment’ (combination of herbicide and application rate). The herbicide treatments are applied post-emergence at the V2-V3 plant growth stage. […]\n(§4) Each plot consists of a single row 1.2 m long and adjacent plots are spaced 0.76 m apart. […] The zygosity of each plant of transgenic event is determined prior to the application of the herbicide treatment.\n(§5) The effect of the HPPD herbicide treatments on phenotypic and phenologic characteristics of plants representing each transgenic event and control variety, including tolerance to each herbicide treatment, is assessed during different vegetative and reproductive stages of plant growth.\n(§6) An analysis of variance is conducted on data collected from each subplot and a Student's T test or Tukey's test is calculated where appropriate to compare means. […]"}, "[2]": {"test_system": "soybean plants expressing mutated Arabidopsis HPPD", "assay": "Herbicide field trial", "settings": "7 DAT with 50 g/ha, post-emergence V2-V3, 1% v/v MSO; preliminary assessment, FIG. 7", "procedure": "as §1, §2, §3, §4, §5, §6"}, "[3]": {"test_system": "transgenic soybean plants AtHPPD M335H, event SDS-9863", "assay": "Greenhouse testing of soybean plants", "settings": "soybean AtHPPD M335H SDS-9863, 14 days, average of 8 T1 individuals", "procedure": "(§7) Transgenic plants expressing heterologous HPPD or HST enzymes are tested for tolerance against HPPD-inhibiting, preferably pyrazolone, isoxazole, or triketone derivative herbicides in greenhouse experiments.\n(§8) For post emergence treatment, the test plants are first grown to a height of 3 to 15 cm, depending on the plant habit, and only then treated with the herbicides. For this purpose, the test plants are either sown directly and grown in the same containers, or they are first grown separately and transplanted into the test containers a few days prior to treatment.\n(§9) For testing of T0 plants, cuttings can be used. In the case of soybean plants, an optimal shoot for cutting is about 7.5 to 10 cm tall, with at least two nodes present. Each cutting is taken from the original transformant (mother plant) and dipped into rooting hormone powder (indole-3-butyric acid, IBA). The cutting is then placed in oasis wedges inside a bio-dome. Wild type cuttings are also taken simultaneously to serve as controls. The cuttings are kept in the bio-dome for 5-7 days and then transplanted to pots and then acclimated in the growth chamber for two more days. Subsequently, the cuttings are transferred to the greenhouse, acclimated for approximately 4 days, and then subjected to spray tests as indicated.\n(§10) Depending on the species, the plants are kept at 10-25° C. or 20-35° C. The test period extends over 3 weeks. During this time, the plants are tended and their response to the individual treatments is evaluated. Herbicide injury evaluations are taken at 2 and 3 weeks after treatment. […] Tolerance to HPPD-inhibiting, preferably pyrazolone, isoxazole, or triketone derivative herbicides can also be assessed in Arabidopsis. In this case transgenic Arabidopsis thaliana plants are assayed for improved tolerance to HPPD-inhibiting, preferably pyrazolone, isoxazole, or triketone derivative herbicides in 48-well plates. Seeds are surface sterilized by stirring for 5 min in ethanol+water (70+30 by volume), rinsing one time with ethanol+water (70+30 by volume) and two times with a sterile, deionized water. The seeds are resuspended in 0.1% agar dissolved in water (w/v). Four to five seeds per well are plated on solid nutrient medium consisting of half-strength Murashige Skoog nutrient solution, pH 5.8 (Murashige and Skoog (1962) Physiologia Plantarum 15: 473-497). Compounds are dissolved in dimethylsulfoxid (DMSO) and added to the medium prior solidification (final DMSO concentration 0.1%). Multi well plates are incubated in a growth chamber at 22° C., 75% relative humidity and 110 μmol Phot*m−2*s−1 with 14:10 h light:dark photoperiod. Seven to ten days after seeding growth inhibition is evaluated by comparison to wild type plants. Tolerance factor is calculated by dividing the plant growth IC50 value of transgenic plants containing a HPPD and/or HST sequence by that of wildtype plants.\n(§11) Transgenic soy plants were sprayed with a range of doses from 6.25-100 g/ha with an HPPD-inhibiting herbicide and injury evaluations were taken two weeks after treatment. […] Compared to the untransformed wild-type, plants comprising polynucleotides encoding for Arabidopsis HPPD wild-type or mutated versions thereof were less susceptible to Inhibitor 1."}, "[4]": {"test_system": "transgenic soybean plants GmHPPD, event SDS-10298", "assay": "Greenhouse testing of soybean plants", "settings": "soybean GmHPPD SDS-10298, 14 days, average of 8 T1 individuals", "procedure": "as §7, §8, §9, §10, §11"}, "[5]": {"test_system": "soybean plants, transgene none (WT)", "assay": "Greenhouse testing of soybean plants", "settings": "no transgene, 14 days after treatment", "procedure": "as §7, §8, §9, §10, §11"}},
  "data": [
    {"smiles": "Cc1c(C(=O)c2cnn(C)c2O)ccc(S(C)(=O)=O)c1C1=NOCC1", "note": "[Inhibitor 1, [3-(4,5-dihydroisoxazol-3-yl)-2-methyl-4-methylsulfonyl-phenyl]-(5-hydroxy-1-methyl-pyrazol-4-yl)methanone]", "values": [
      {"measurement": "field injury (in words)", "setting": "[1]", "value": "severe herbicide damage"},
      {"measurement": "field injury (in words)", "setting": "[2]", "value": "low-moderate injury"},
      {"measurement": "Injury evaluation (bleaching phenotype, scale of 1-100)", "setting": "[3]; 6.25 g/ha", "value": 0, "unit": "%"},
      {"measurement": "Injury evaluation (bleaching phenotype, scale of 1-100)", "setting": "[3]; 25 g/ha", "value": 4, "unit": "%"},
      {"measurement": "Injury evaluation (bleaching phenotype, scale of 1-100)", "setting": "[3]; 100 g/ha", "value": 59, "unit": "%"},
      {"measurement": "Injury evaluation (bleaching phenotype, scale of 1-100)", "setting": "[4]; 6.25 g/ha", "value": 20, "unit": "%"},
      {"measurement": "Injury evaluation (bleaching phenotype, scale of 1-100)", "setting": "[4]; 25 g/ha", "value": 58, "unit": "%"},
      {"measurement": "Injury evaluation (bleaching phenotype, scale of 1-100)", "setting": "[4]; 100 g/ha", "value": 83, "unit": "%"},
      {"measurement": "Injury evaluation (bleaching phenotype, scale of 1-100)", "setting": "[5]; 25 g/ha", "value": 90, "unit": "%"},
      {"measurement": "Injury evaluation (bleaching phenotype, scale of 1-100)", "setting": "[5]; 100 g/ha", "value": 90, "unit": "%"}
    ]}
  ]
}
